Assay results reported in PubChem BioAssay (NCI).
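Interpolation was linear, between the two tested concentrations surrounding the appropriate level; five concentrations were tested over 48 hours in 96-well plates. At the GI50, growth is halved. Definition used: TGI = concentration required for complete inhibition of growth.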

Key:
Assay in all cases: DTP human tumour cell line panel, 48 h
786-0 renal = test system: 786-0 renal
MDA-MB-435 = test system: MDA-MB-435
NCI-H23 lung = test system: NCI-H23 lung
OVCAR-5 ovarian = test system: OVCAR-5 ovarian
RXF 393 renal = test system: RXF 393 renal
SF-268 CNS = test system: SF-268 CNS
SK-MEL-5 melanoma = test system: SK-MEL-5 melanoma
UACC-257 melanoma = test system: UACC-257 melanoma

SMILES | GI50 (786-0 renal) [µM] | TGI (786-0 renal) [µM] | GI50 (MDA-MB-435) [µM] | TGI (MDA-MB-435) [µM] | GI50 (NCI-H23 lung) [µM] | TGI (NCI-H23 lung) [µM] | GI50 (OVCAR-5 ovarian) [µM] | TGI (OVCAR-5 ovarian) [µM] | GI50 (RXF 393 renal) [µM] | TGI (RXF 393 renal) [µM] | GI50 (SF-268 CNS) [µM] | TGI (SF-268 CNS) [µM] | GI50 (SK-MEL-5 melanoma) [µM] | TGI (SK-MEL-5 melanoma) [µM] | GI50 (UACC-257 melanoma) [µM] | TGI (UACC-257 melanoma) [µM]
Cc1nc2sc(C(=O)Nc3ccccc3)c(N)c2cc1C(O)c1ccccc1 (centres undefined) | 0.553 | 20 | 0.0308 | 0.102 | 0.664 | > 100 | 0.565 | > 88.1 | 0.27 | 1.88 | 0.917 | > 100 | 0.338 | 1.63 | 4.21 | > 52
Cc1c(Cl)cccc1NC(=O)c1sc2nc3c(cc2c1N)C(=O)CCC3 | 0.0917 | > 59.4 | 0.0203 | 0.0488 | 0.137 | > 100 | 0.283 | > 100 | 0.037 | 1.11 | 0.206 | > 100 | 0.13 | 2.78 |  | 
CSc1nnc(-c2cc3c([nH]c4ccccc43)c(-c3cccc(O)c3)n2)n1-c1ccc(C)cc1 | 4.61 | 32.2 | 1.32 | 11.2 | 5.76 | > 100 | 17.2 | 70.1 | 2.11 | 6.51 | 3.83 | 48.1 | 2.38 | 11.5 | 5 | 44.7
O=C(NNc1ccccc1)c1ccc(Cl)c(Cl)c1 |  | > 100 |  | > 100 |  | > 100 |  | > 100 |  | > 84 |  | > 100 |  | 41.6 |  | 13.9
COc1ccc(/C=C2\COc3ccc(O)c(O)c3C2=O)cc1OC | 1.51 | 3.87 | 1.32 | 3.78 | 1.89 | 5.56 | 1.73 | 3.8 | 1.44 | 2.91 | 1.7 | 5.64 | 1.79 | 3.4 | 1.75 | 4.93
Cc1nn(Cc2ccccc2)cc1C(=O)Nc1sc2c(c1C(N)=O)CCC(=O)C2 | 3.55 | 28.6 | 1.98 | 4.45 | 2.52 | 7.22 | 1.92 | 4.3 | 2.35 | 7.1 | 3.12 | 21.8 | 1.83 | 3.33 | 2.16 | 6.24
Cc1ccc(NC(=S)C#N)c(C)c1 |  | > 100 |  | > 100 |  | > 100 |  | > 100 |  | > 100 |  | > 100 |  | > 100 |  | > 100
C[C@@H](CS[As](C)C)C(=O)N1CCC[C@H]1C(=O)O | 0.0752 | 1.01 | 0.138 | 0.468 | 0.359 | 2.33 | 0.444 | 1.8 | 0.194 | 2.81 | 0.788 | 6.45 | 0.152 | 0.436 | 1.45 | 7.8
CC(=O)c1ccc2c3c1[C@H]1O[C@H]1c1cccc(c1-3)[C@@H]1O[C@H]21 | 1.74 | 4 |  | 4.54 |  | 3.42 |  | 3.68 |  | 3.82 |  | 3.86 |  | 5.39 |  | 8.1
